Test results published in article PMC6760105, “Construction of a novel quinoxaline as a new class of Nrf2 activator” (BMC Chemistry, 2019).

Legend:
[1] = system: RAW 264.7 cells; assay: IL-1β production, ELISA, LPSEc stimulated cells; format: cell-based; conditions: Mus musculus, RAW264.7, LPSEc (1 µg/mL) stimulated RAW 264.7 cells
Experimental: (§1) Murine macrophages, cell line: RAW 264.7 was procured from ATCC, USA. The macrophage cells were grown and cultured in Dulbecco’s Modified Eagle Medium (DMEM) supplemented with 10% Fetal Bovine serum (FBS) and 1% PenStrep and incubated in a 5% CO2 at 37 °C incubator. Cells from passages 10 to 20 were used for subsequent experiments.
(§2) Production of IL-1β, IL-6, PGE2− and TNF-α in RAW 264.7 cells were quantitatively measured using an enzyme-linked immunosorbent assay (ELISA). The cells were incubated with 0.1% DMSO or NQC for 4 h, then stimulated with LPSEc, 1 µg/mL, for 20 h. The production of pro-inflammatory cytokines (IL-1β, IL-6) and TNF-α were determined using commercial ELISA kit (RayBio) according to the manufacturer’s instructions in product insert. The absorbance was measured at 540 nm. All the experiments were performed in triplicate.

[2] = system: RAW 264.7 cells; assay: MTT cell viability assay; format: cell-based, mouse; conditions: for cytotoxic effects on RAW 264.7 cells (MTT): LPSEc stimulated
Experimental: as §1
A calorimetric agent (3-(4,5-Dimethylthiazol-2-yl)-2,5-Diphenyltetrazolium Bromide) (MTT) was used to as an assay to determine cell viability after being exposed to NQC. RAW 264.7 cells were seeded in a 96-well microplate at 3 × 10^5 cells/well and were allowed to grow and adhere for 24 h in a 37 °C, 5% CO2 incubator. NQC was dissolved in DMSO and diluted with PBS to produce the required test concentrations (100, 50, 25, 12.5, 6.25 and 3.125 µM). The negative control is 0.1% (v/v) DMSO, which is the maximum effective concentration of DMSO in a well. The cells were treated with either NQC or 0.1% (v/v) DMSO for 4 h followed by 1 µg/mL LPSEc and incubated further for 20 h. MTT solution was added at 100 µL per well under dark condition and the cells were incubated further for 4 h. Upon completion of incubation, the contents in all wells were aspirated and DMSO was added at 100 µL per well. The absorbance was measured at 570 nm using Molecular Devices Spectramax M3 Multi-Mode microplate reader; Sunnyvale, CA, USA. The cells without any treatment was used as a control. MTT assay was performed in triplicate. The percent cell viability is calculated using the following equation: PercentCellViabilty=AbsorbanceofVehicleorTD-1treatedgroupwell/AbsorbanceofControlwell×100.

[3] = Microsomal metabolic stability, mouse liver microsomes; format: in vitro ADME; conditions: NQC 1 µM
Experimental: (§3) A stock solution (SS) of NQC at 1 mM was prepared using 100% dimethyl sulfoxide. Working solution of 10 μM was further prepared by dilution of SS with 25% ACN and 50 mM tris–HCl buffer (pH 7.4). In a 96-well plate, NQC (effective concentration:1 µM) was incubated with phosphate buffer (pH7.4) and 0.5 mg/mL of liver microsomes (human, rat and mouse) at 37 °C in an incubation. Each NQC incubation with liver microsomes was performed in triplicates. The microsomal metabolic reaction was initiated by the addition of co-factor, NADPH (5 mM). Samples following the allotted time-point was drawn and quenched into a solution of acetonitrile containing 50 ng/mL internal standard. The sample was analysed by a developed HPLC method that has been validated for lower limit of quantification, linearity, precision, selectivity and accuracy according to FDA guidance.
(§4) Half-life of NQC was calculated using the equation: T1/2=0.693/K.
(§5) The in vitro microsomal intrinsic clearance (CLint) was calculated based on the equation below: Clint=0.693/invitrot(1/2)×mlincubation/mgmicrosome×52.5mgmicrosome/gliver×[…].

[4] = Microsomal metabolic stability, human liver microsomes; format: in vitro ADME; conditions: NQC 1 µM
Experimental: as §3, §4, §5

[5] = Microsomal metabolic stability, rat liver microsomes; format: in vitro ADME; conditions: NQC 1 µM
Experimental: as §3, §4, §5

[6] = system: RAW 264.7 cells; assay: TNF-α production, ELISA, LPSEc stimulated cells; format: cell-based; conditions: Mus musculus, RAW264.7, LPSEc (1 µg/mL) stimulated RAW 264.7 cells
Experimental: as §1, §2

[7] = system: RAW 264.7 cells; assay: Nitric oxide (nitrite) production, Griess reagent, LPSEc stimulated cells; format: cell-based; conditions: Mus musculus, RAW264.7; LPSEc (1 µg/mL) stimulated RAW 264.7 cells; 4 h pretreatment, 20 h LPS; read-out: IC50, NO production
Experimental: as §1
RAW 264.7 cells were seeded in a 96-well microplate at 3 × 10^5 cells/well with complete media. The cells were allowed grow and adhere for 24 h. The cells were treated with NQC (50, 25, 12.5, 6.25 and 3.125 µM) and negative control (0.1% v/v DMSO in water) for 4 h prior to LPSEc (1 µg/mL) and allowed to incubate for 20 h at 37 °C, 5% CO2 incubator. Nitrite exist as a stable metabolite of nitric oxide, thus nitrite present in the supernatant was quantitatively measured as a chemical marker of nitric oxide (NO) production using Griess reagent (Promega, USA; 0.1% naphthylethylenediamine dihydrochloride and 1% sulfanilamide in 2.5% phosphoric acid). This assay was carried out following the manufacturer’s protocol where 100 µL of cell supernatant sample was incubated with 100 µL of Griess reagent at room temperature for 10 min and the absorbance at 540 nm was measured using Molecular Devices Spectramax M3 Multi-Mode microplate reader. […]

[8] = system: RAW 264.7 cells; assay: PGE2 production, ELISA, LPSEc stimulated cells; format: cell-based; conditions: Mus musculus, RAW264.7, LPSEc (1 µg/mL) stimulated RAW 264.7 cells
Experimental: as §1, §2

[9] = system: RAW 264.7 cells; assay: IL-6 production, ELISA, LPSEc stimulated cells; format: cell-based; conditions: Mus musculus, RAW264.7, LPSEc (1 µg/mL) stimulated RAW 264.7 cells
Experimental: as §1, §2

[10] = target: T1, Nrf2-Keap1 interaction (Homo sapiens, UniProt Q14145); assay: Keap1:Nrf2 Inhibitor Screening Assay Kit (Nrf2 activation assay); format: binding; conditions: fluorescence λex 485 nm, λem 530 nm; 100 µM to 1 nM; read-out: IC50, inhibition of Nrf2-Keap1 interaction
T1 construct: purchased BPS Bioscience, USA
T1 sequence (Q14145 whole entry): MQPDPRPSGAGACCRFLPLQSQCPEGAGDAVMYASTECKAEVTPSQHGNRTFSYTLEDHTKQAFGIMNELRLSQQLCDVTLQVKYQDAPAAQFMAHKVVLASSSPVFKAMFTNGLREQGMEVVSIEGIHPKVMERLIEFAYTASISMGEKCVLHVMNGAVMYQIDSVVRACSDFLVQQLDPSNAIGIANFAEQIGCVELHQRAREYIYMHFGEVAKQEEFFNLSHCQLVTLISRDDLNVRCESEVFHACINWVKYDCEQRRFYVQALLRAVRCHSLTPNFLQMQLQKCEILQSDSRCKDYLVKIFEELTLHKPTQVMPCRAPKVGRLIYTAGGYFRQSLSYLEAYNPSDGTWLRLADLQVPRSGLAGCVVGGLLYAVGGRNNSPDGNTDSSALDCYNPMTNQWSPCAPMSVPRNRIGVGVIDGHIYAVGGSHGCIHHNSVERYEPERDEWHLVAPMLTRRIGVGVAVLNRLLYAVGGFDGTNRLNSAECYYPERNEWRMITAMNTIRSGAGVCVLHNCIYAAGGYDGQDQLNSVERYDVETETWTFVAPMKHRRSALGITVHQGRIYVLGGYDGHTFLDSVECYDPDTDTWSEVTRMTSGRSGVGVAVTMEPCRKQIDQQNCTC
Experimental: The Nrf2 activation by NQC was determined using ‘Keap1:Nrf2 Inhibitor Screening Assay Kit’ (BPS Bioscience, USA) following the instructions in product insert. The NQC was dissolved in DMSO and diluted with assay buffer provided in the kit to produce the concentrations range, 100 µM to 1 nM. The fluorescence of the solutions in each well of 96-well plate was measured at λex 485 nm and λem 530 nm. The dose–response curve was constructed plotting percent reduction in Kepa1-Nrf2 binding activity versus log concentration of NQC. From dose–response curve IC50 value was calculated.

- IC50 [1]: 13.3 ± 2.37 µM
- Rate of metabolism ([3]; mouse liver microsomes): 0.028 min⁻¹
- microsomal intrinsic clearance (CLint) ([3]; mouse liver microsomes): 2.96 ± 0.34 mL/min/g liver
- mCint (microsomal intrinsic clearance) ([3]; mouse liver microsomes, Table 1): 2.96 ± 0.34 mL/min/g liver
- half-life at 1 µM ([3]; pH 7.4, mouse liver microsomes 0.5 mg/mL, NADPH, 37 °C): 24.6 ± 1.13 min
- Rate of metabolism ([4]; human liver microsomes): 0.011 min⁻¹
- microsomal intrinsic clearance (CLint) ([4]; human liver microsomes): 1.14 ± 0.31 mL/min/g liver
- mCint (microsomal intrinsic clearance) ([4]; human liver microsomes, Table 1): 1.14 ± 0.31 mL/min/g liver
- half-life at 1 µM ([4]; pH 7.4, human liver microsomes 0.5 mg/mL, NADPH, 37 °C): 63.3 ± 1.73 min
- T1/2 ([5]; rat liver microsomes 0.5 mg/mL, NADPH, 37 °C): 52.23 ± 0.81 min
- Rate of metabolism ([5]; rat liver microsomes): 0.013 min⁻¹
- microsomal intrinsic clearance (CLint) ([5]; rat liver microsomes): 1.39 ± 0.87 mL/min/g liver
- mCint (microsomal intrinsic clearance) ([5]; rat liver microsomes, Table 1): 1.39 ± 0.87 mL/min/g liver
- half-life at 1 µM ([5]; rat, liver microsomes, pH 7.4, rat liver microsomes 0.5 mg/mL, NADPH, 37 °C): 52.3 ± 0.81 min
- IC50 [6]: 14.4 ± 1.83 µM
- IC50 [7]: 26.1 ± 1.17 µM
- IC50 [8]: 15.2 ± 0.91 µM
- IC50 [9]: 10.1 ± 0.58 µM
- IC50 [10]: 4.21 ± 0.89 µM
SMILES: O=C(NNC(=O)c1cnc2ccccc2n1)c1cccnc1 [NQC, N′-(Pyridine-3-carbonyl)quinoxaline-2-carbohydrazide]
- cytotoxic effects on RAW 264.7 cells (MTT) ([2]; 100 µM, P < 0.05): significant toxicity
- cytotoxic effects on RAW 264.7 cells (MTT) ([2]; 3.125–50 µM, P > 0.05): do not show cytotoxic effects
- toxicity on RAW 264.7 cells ([2]; dose of 50 µM): non-toxic
